# Results published in ChEMBL document CHEMBL1150477, “Development of angiotensin II antagonists with equipotent affinity for human AT1 and AT2 receptor subtypes” (Bioorg Med Chem Lett, 1994).
# Where a chain is given by its changes, count along the chain named.
# Biological target: T1, Type-2 angiotensin II receptor (Rattus norvegicus, UniProt P35351)
# T1 sequence (P35351 whole entry): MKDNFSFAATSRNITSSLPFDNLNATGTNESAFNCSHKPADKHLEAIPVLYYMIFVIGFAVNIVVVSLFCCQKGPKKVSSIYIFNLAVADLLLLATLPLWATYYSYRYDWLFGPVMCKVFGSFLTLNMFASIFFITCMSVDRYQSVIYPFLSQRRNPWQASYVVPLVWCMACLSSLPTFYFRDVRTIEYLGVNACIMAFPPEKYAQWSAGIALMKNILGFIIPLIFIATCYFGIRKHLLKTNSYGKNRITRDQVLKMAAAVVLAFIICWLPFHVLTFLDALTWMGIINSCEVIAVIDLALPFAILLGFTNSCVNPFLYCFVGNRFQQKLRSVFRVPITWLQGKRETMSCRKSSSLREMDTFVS
# Experiment: […] inhibitory concentration against AT2 receptor of rat adrenal membrane
# Settings: not given
row,Compound,IC50
1,CCc1nc2ccc(NC(=O)N(C)C(C)C)cc2c(=O)n1Cc1ccc(-c2ccccc2S(=O)(=O)NC(=O)OCCC2CC2)cc1F,0.77 nM
2,CCNC(=O)Nc1ccc2nc(CC)n(Cc3ccc(-c4ccccc4S(=O)(=O)NC(=O)c4ccccc4F)cc3F)c(=O)c2c1,4.5 nM
3,Cc1nc2ccc(NC(=O)N(C)C(C)C)cc2c(=O)n1Cc1ccc(-c2ccccc2S(=O)(=O)NC(=O)OCCC(C)C)cc1F,0.72 nM
4,CCCCOC(=O)NS(=O)(=O)c1ccccc1-c1ccc(Cn2c(CCCC)nc3ccc(NC(=O)N(C)C(C)C)cc3c2=O)c(F)c1,0.77 nM

# Biological target: Angiotensin II receptor (Homo sapiens) (UniProt P30556+P50052)
# Experiment: Ratio of inhibitory concentration against AT2 receptor and AT1 receptor of human adrenal membrane
# Settings: not given
# Chain of Angiotensin II receptor (Homo sapiens) (P30556 whole entry, looked up, one chain of several): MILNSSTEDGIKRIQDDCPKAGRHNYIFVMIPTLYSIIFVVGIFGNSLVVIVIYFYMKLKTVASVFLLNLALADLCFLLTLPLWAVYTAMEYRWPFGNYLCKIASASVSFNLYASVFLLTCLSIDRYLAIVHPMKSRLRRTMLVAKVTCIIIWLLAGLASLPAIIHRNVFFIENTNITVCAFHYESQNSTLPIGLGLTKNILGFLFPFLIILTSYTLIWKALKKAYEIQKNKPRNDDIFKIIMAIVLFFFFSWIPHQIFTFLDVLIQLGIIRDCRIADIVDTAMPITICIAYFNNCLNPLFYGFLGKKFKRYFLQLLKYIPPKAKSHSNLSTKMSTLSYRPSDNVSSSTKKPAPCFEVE
row,Compound,Ratio
1,CCc1nc2ccc(NC(=O)N(C)C(C)C)cc2c(=O)n1Cc1ccc(-c2ccccc2S(=O)(=O)NC(=O)OCCC2CC2)cc1F,0.87
2,CCNC(=O)Nc1ccc2nc(CC)n(Cc3ccc(-c4ccccc4S(=O)(=O)NC(=O)c4ccccc4F)cc3F)c(=O)c2c1,1.1
3,Cc1nc2ccc(NC(=O)N(C)C(C)C)cc2c(=O)n1Cc1ccc(-c2ccccc2S(=O)(=O)NC(=O)OCCC(C)C)cc1F,0.47
4,CCCCOC(=O)NS(=O)(=O)c1ccccc1-c1ccc(Cn2c(CCCC)nc3ccc(NC(=O)N(C)C(C)C)cc3c2=O)c(F)c1,8.7

# Biological target: Angiotensin II receptor (Rattus norvegicus) (UniProt P29089+P25095+P35351)
# Experiment: Ratio of inhibitory concentration against AT2 receptor and AT1 receptor of rat adrenal membrane
# Settings: not given
row,Compound,Ratio
1,CCc1nc2ccc(NC(=O)N(C)C(C)C)cc2c(=O)n1Cc1ccc(-c2ccccc2S(=O)(=O)NC(=O)OCCC2CC2)cc1F,1.83
2,CCNC(=O)Nc1ccc2nc(CC)n(Cc3ccc(-c4ccccc4S(=O)(=O)NC(=O)c4ccccc4F)cc3F)c(=O)c2c1,1.4
3,Cc1nc2ccc(NC(=O)N(C)C(C)C)cc2c(=O)n1Cc1ccc(-c2ccccc2S(=O)(=O)NC(=O)OCCC(C)C)cc1F,1.24
4,CCCCOC(=O)NS(=O)(=O)c1ccccc1-c1ccc(Cn2c(CCCC)nc3ccc(NC(=O)N(C)C(C)C)cc3c2=O)c(F)c1,3.2

# Test system: Rattus norvegicus
# Experiment: In vivo inhibition of angiotensin II induced pressor response in rats at a dose of 1.0 mg/Kg administered intravenously
# Format: functional
# Settings: iv
row,Compound,inhibition in vivo at 1 mg/kg
1,CCc1nc2ccc(NC(=O)N(C)C(C)C)cc2c(=O)n1Cc1ccc(-c2ccccc2S(=O)(=O)NC(=O)OCCC2CC2)cc1F,91%

# Biological target: T2, Type-2 angiotensin II receptor (Homo sapiens, UniProt P50052)
# T2 sequence (P50052 whole entry): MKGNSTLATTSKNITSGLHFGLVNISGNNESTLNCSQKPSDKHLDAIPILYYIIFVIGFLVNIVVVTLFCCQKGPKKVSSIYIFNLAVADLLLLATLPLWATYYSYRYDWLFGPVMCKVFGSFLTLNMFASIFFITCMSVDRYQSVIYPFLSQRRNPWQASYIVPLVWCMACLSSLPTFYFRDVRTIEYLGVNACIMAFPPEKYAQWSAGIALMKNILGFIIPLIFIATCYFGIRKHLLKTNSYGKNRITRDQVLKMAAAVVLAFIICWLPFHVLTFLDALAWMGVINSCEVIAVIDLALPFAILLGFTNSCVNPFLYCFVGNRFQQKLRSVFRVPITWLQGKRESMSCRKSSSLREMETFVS
# Experiment: […] inhibitory concentration against AT2 receptor of human adrenal membrane
# Settings: not given
row,Compound,IC50
1,CCc1nc2ccc(NC(=O)N(C)C(C)C)cc2c(=O)n1Cc1ccc(-c2ccccc2S(=O)(=O)NC(=O)OCCC2CC2)cc1F,6.2 nM
2,CCNC(=O)Nc1ccc2nc(CC)n(Cc3ccc(-c4ccccc4S(=O)(=O)NC(=O)c4ccccc4F)cc3F)c(=O)c2c1,65 nM
3,Cc1nc2ccc(NC(=O)N(C)C(C)C)cc2c(=O)n1Cc1ccc(-c2ccccc2S(=O)(=O)NC(=O)OCCC(C)C)cc1F,12.5 nM
4,CCCCOC(=O)NS(=O)(=O)c1ccccc1-c1ccc(Cn2c(CCCC)nc3ccc(NC(=O)N(C)C(C)C)cc3c2=O)c(F)c1,7.7 nM

# Biological target: T3, Type-1 angiotensin II receptor (Oryctolagus cuniculus, UniProt P34976)
# T3 sequence (P34976 whole entry): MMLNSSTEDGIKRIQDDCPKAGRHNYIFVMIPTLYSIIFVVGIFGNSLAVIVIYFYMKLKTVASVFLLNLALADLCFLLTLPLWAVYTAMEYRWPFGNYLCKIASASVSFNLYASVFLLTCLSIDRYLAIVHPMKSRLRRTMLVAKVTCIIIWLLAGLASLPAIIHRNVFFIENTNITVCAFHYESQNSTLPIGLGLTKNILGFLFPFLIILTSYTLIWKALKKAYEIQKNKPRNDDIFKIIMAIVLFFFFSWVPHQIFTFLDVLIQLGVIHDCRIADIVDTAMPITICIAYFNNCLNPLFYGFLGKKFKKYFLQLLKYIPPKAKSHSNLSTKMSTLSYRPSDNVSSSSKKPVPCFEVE
# Experiment: […] inhibitory concentration against Angiotensin II receptor, type 1 of rabbit aorta membrane
# Settings: not given
row,Compound,IC50
1,CCc1nc2ccc(NC(=O)N(C)C(C)C)cc2c(=O)n1Cc1ccc(-c2ccccc2S(=O)(=O)NC(=O)OCCC2CC2)cc1F,0.57 nM
2,CCNC(=O)Nc1ccc2nc(CC)n(Cc3ccc(-c4ccccc4S(=O)(=O)NC(=O)c4ccccc4F)cc3F)c(=O)c2c1,4 nM
3,Cc1nc2ccc(NC(=O)N(C)C(C)C)cc2c(=O)n1Cc1ccc(-c2ccccc2S(=O)(=O)NC(=O)OCCC(C)C)cc1F,2.3 nM
4,CCCCOC(=O)NS(=O)(=O)c1ccccc1-c1ccc(Cn2c(CCCC)nc3ccc(NC(=O)N(C)C(C)C)cc3c2=O)c(F)c1,0.19 nM

# Species: Oryctolagus cuniculus
# Experiment: Ratio of inhibitory concentration against AT2 receptor of rat midbrain to AT1 receptor of rabbit aorta
# Settings: not given
row,Compound,Ratio
1,CCc1nc2ccc(NC(=O)N(C)C(C)C)cc2c(=O)n1Cc1ccc(-c2ccccc2S(=O)(=O)NC(=O)OCCC2CC2)cc1F,1.2
2,CCNC(=O)Nc1ccc2nc(CC)n(Cc3ccc(-c4ccccc4S(=O)(=O)NC(=O)c4ccccc4F)cc3F)c(=O)c2c1,0.46
3,Cc1nc2ccc(NC(=O)N(C)C(C)C)cc2c(=O)n1Cc1ccc(-c2ccccc2S(=O)(=O)NC(=O)OCCC(C)C)cc1F,0.45
4,CCCCOC(=O)NS(=O)(=O)c1ccccc1-c1ccc(Cn2c(CCCC)nc3ccc(NC(=O)N(C)C(C)C)cc3c2=O)c(F)c1,2.7

# Test system: Canis familiaris
# Experiment: In vivo inhibition of angiotensin II induced pressor response in dogs at a dose of 1.0 mg/Kg after 6 hr administered intravenously
# Format: functional
# Settings: Canis lupus familiaris, iv
row,Compound,inhibition in vivo at 1 mg/kg
1,CCc1nc2ccc(NC(=O)N(C)C(C)C)cc2c(=O)n1Cc1ccc(-c2ccccc2S(=O)(=O)NC(=O)OCCC2CC2)cc1F,48%

# Test system: Rattus norvegicus
# Experiment: In vivo inhibition of angiotensin II induced pressor response in rats at a dose of 1.0 mg/Kg after 6 hr administered intravenously
# Format: functional
# Settings: iv
row,Compound,inhibition in vivo at 1 mg/kg
1,CCc1nc2ccc(NC(=O)N(C)C(C)C)cc2c(=O)n1Cc1ccc(-c2ccccc2S(=O)(=O)NC(=O)OCCC2CC2)cc1F,62%

# Test system: Canis familiaris
# Experiment: In vivo inhibition of angiotensin II induced pressor response in dogs at a dose of 1.0 mg/Kg administered intravenously
# Format: functional
# Settings: Canis lupus familiaris, iv
row,Compound,inhibition in vivo at 1 mg/kg
1,CCc1nc2ccc(NC(=O)N(C)C(C)C)cc2c(=O)n1Cc1ccc(-c2ccccc2S(=O)(=O)NC(=O)OCCC2CC2)cc1F,89%

# Biological target: T1, Type-2 angiotensin II receptor
# Experiment: […] inhibitory concentration against Angiotensin II, type 2 of rat midbrain membrane
# Settings: not given
row,Compound,IC50
1,CCc1nc2ccc(NC(=O)N(C)C(C)C)cc2c(=O)n1Cc1ccc(-c2ccccc2S(=O)(=O)NC(=O)OCCC2CC2)cc1F,0.39 nM
2,CCNC(=O)Nc1ccc2nc(CC)n(Cc3ccc(-c4ccccc4S(=O)(=O)NC(=O)c4ccccc4F)cc3F)c(=O)c2c1,1.6 nM
3,Cc1nc2ccc(NC(=O)N(C)C(C)C)cc2c(=O)n1Cc1ccc(-c2ccccc2S(=O)(=O)NC(=O)OCCC(C)C)cc1F,1.05 nM
4,CCCCOC(=O)NS(=O)(=O)c1ccccc1-c1ccc(Cn2c(CCCC)nc3ccc(NC(=O)N(C)C(C)C)cc3c2=O)c(F)c1,0.44 nM

# Biological target: T4, Type-1 angiotensin II receptor (Homo sapiens, UniProt P30556)
# T4 sequence (P30556 whole entry): T3 sequence (P34976 whole entry) with M2I, A49V, V254I, V270I, H272R, K311R, S349T, V353A
# Experiment: […] inhibitory concentration against Angiotensin II receptor, type 1 of human adrenal membrane
# Settings: not given
row,Compound,IC50
1,CCc1nc2ccc(NC(=O)N(C)C(C)C)cc2c(=O)n1Cc1ccc(-c2ccccc2S(=O)(=O)NC(=O)OCCC2CC2)cc1F,8.1 nM
2,CCNC(=O)Nc1ccc2nc(CC)n(Cc3ccc(-c4ccccc4S(=O)(=O)NC(=O)c4ccccc4F)cc3F)c(=O)c2c1,59 nM
3,Cc1nc2ccc(NC(=O)N(C)C(C)C)cc2c(=O)n1Cc1ccc(-c2ccccc2S(=O)(=O)NC(=O)OCCC(C)C)cc1F,26.5 nM
4,CCCCOC(=O)NS(=O)(=O)c1ccccc1-c1ccc(Cn2c(CCCC)nc3ccc(NC(=O)N(C)C(C)C)cc3c2=O)c(F)c1,0.89 nM

# Biological target: T5, Angiotensin II receptor (AT-1) type-1 (Rattus norvegicus, UniProt P29089+P25095)
# T5 sequence (P29089 whole entry): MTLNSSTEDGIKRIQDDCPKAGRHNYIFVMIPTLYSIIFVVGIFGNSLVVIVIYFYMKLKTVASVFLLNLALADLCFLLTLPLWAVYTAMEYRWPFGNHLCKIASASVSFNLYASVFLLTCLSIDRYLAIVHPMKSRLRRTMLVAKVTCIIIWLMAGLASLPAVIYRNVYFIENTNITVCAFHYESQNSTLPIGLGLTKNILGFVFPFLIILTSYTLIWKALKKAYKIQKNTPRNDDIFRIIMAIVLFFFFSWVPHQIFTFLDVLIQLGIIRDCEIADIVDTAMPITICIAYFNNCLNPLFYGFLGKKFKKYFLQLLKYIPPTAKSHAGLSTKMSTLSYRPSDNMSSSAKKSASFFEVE
# T5 sequence (P25095 whole entry): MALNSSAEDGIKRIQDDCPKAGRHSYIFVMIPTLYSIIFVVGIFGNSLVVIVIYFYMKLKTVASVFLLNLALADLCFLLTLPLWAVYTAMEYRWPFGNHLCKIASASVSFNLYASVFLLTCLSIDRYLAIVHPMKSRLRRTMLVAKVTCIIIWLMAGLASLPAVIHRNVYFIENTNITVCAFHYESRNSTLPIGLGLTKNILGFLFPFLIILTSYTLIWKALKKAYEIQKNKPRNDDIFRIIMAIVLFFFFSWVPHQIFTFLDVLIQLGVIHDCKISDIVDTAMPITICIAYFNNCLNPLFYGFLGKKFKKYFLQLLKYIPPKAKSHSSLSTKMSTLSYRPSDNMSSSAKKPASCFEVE
# Experiment: […] inhibitory concentration against Angiotensin II receptor, type 1 of rat adrenal membrane
# Settings: not given
row,Compound,IC50
1,CCc1nc2ccc(NC(=O)N(C)C(C)C)cc2c(=O)n1Cc1ccc(-c2ccccc2S(=O)(=O)NC(=O)OCCC2CC2)cc1F,0.5 nM
2,CCNC(=O)Nc1ccc2nc(CC)n(Cc3ccc(-c4ccccc4S(=O)(=O)NC(=O)c4ccccc4F)cc3F)c(=O)c2c1,3.9 nM
3,Cc1nc2ccc(NC(=O)N(C)C(C)C)cc2c(=O)n1Cc1ccc(-c2ccccc2S(=O)(=O)NC(=O)OCCC(C)C)cc1F,0.58 nM
4,CCCCOC(=O)NS(=O)(=O)c1ccccc1-c1ccc(Cn2c(CCCC)nc3ccc(NC(=O)N(C)C(C)C)cc3c2=O)c(F)c1,0.25 nM
